Patent publication US7943139B2, “Methods of generating a humoral immune response against human immunodeficiency virus (HIV) comprising administering Nef apoptotic motif-containing polypeptide-conjugates” (priority 2004, dated 2011)
Where no end group is shown, it is not given here.

Assays:
CXCR4 receptor = target: T1, CXCR4 receptor (Homo sapiens, UniProt P61073); assay: Fluorescent binding assay with Flc labeled M1 peptide on transfected MDA-MB-468 cells
T1 construct: transiently transfected with a CXCR4 cDNA clone; expressed in transfected cells; host or cells: MDA-MB-468 (human breast tumour line, lacks endogenous CXCR4), transient transfection
Experimental: Specific physical binding to CXCR4 was assayed. The above transfection experiment (MDA-MB-468 cultures either untransfected, or transiently transfected with a CXCR4 cDNA clone, empty vector, or CCR5 cDNA clone) was assayed in the fluorescent binding assay with the Flc labeled M1 peptide.

Jurkat cell cultures = assay: Nef peptide apoptosis screen (TUNEL); format: cell-based; conditions: 24 hours; for apoptosis induced by Nef 20 mer peptides: 10 ng/ml
Experimental: Apoptosis generates DNA free ends which can be labeled in situ using terminal deoxynucleotidyl-transferase (TdT), incorporating an exogenously added labeled nucleotide to the DNA strand. This label can then be visualized directly by fluorescence or indirectly using anti-FITC-peroxidase, and a calorimetric assay. Cells on coverslips were washed with PBS, and fixed for 30 minutes at RT with 4% paraformaldehyde, in PBS, pH 7.4. They were then washed with PBS, and permeabilized with 0.1% Triton X-100 for 10 minutes at room temperature (RT). The slides were rinsed twice with PBS, and air dried for 2 minutes. Then, we followed precisely the manufacturers procedure for TUNEL staining the slides (manufacturer's procedure for the In Situ Cell Death Detection Kit, AP; Boehringer Mannheim, Indianapolis, Ind.). Total cell counts were determined by counterstaining fixed cultures with 20 μg/ml of Hoechst 33258. All specimens were observed by epifluorescence on a computer-controlled microscope system based on a Zeiss Axioskop microscope (Carl Zeiss, Thornwood, N.Y.), and the images were obtained and examined using a charged coupled device (CCD) camera, MagnaFire, model S99806 (Olympus American, Melville, N.Y.). Images were examined using Image-Pro Plus 4.1 for Windows (Media Cybernetics, Silver Springs, Md.) software.
Nef peptides retain much of the binding and signaling activity of the full molecule. A set of 20 mer peptides with 10 aa overlaps, spanning the Nef protein (205 aa), were obtained from the AIDS Reagent Program. Jurkat cell cultures were exposed to each of the Nef peptides at 10 ng/ml for 24 hours, and screened for apoptosis. One peak of apoptosis was observed spanning peptide aa31-50 to […], peaking at aa41-60 and aa51-70. […] Two regions of the Nef protein that induce apoptosis were identified; (1) a major apoptotic peak centering on aa50-60 (motif 1); (2) a minor peak centering on aa170-180 (motif 2). (aa sequence from HIV-1B clade NL403, Ass. No. AF070521) To determine the specificity of the apoptotic motifs, two 11 mer peptides spanning motif 1, were made, one with the correctly ordered sequence (Nef Motif 1-[…]) (Seq. ID No. 17), and the other with the correct amino acids scrambled in random order (Nef scMotif 1-[…]) (Seq. ID No. 18). Jurkat cell cultures were exposed to each of the two peptides at 8 ng/ml for 24 hours, and screened for apoptosis by TUNEL assay. Nef Motif 1 peptide induced 82% of the apoptosis observed using the full Nef protein. […] Thus, (a) Nef aa50-60 is sufficient to bind and induce an apoptotic signal; (b) induction of apoptosis is primary sequence specific. In some of the studies disclosed herein the Nef Motif 1 having an extra acid, namely […] (Seq. ID No. 19) was administered. In this report, Seq. ID No. 17 and Seq. ID No. 19 are both referred to as M-1 or Nef Motif-1 peptide.

peripheral lymphocytes = assay: KLH-M1 pre-immunization and Nef peptide challenge: PBL depletion and humoral response; format: in vivo, mice
Experimental: Nef Motif 1 peptides linked to keyhole limpet […] (KLH) were administered to 9 mice. Subsequently, the pre-immunized mice and the naive mice were either unchallenged or challenged with Nef peptide for a month. The mice were sacrificed and the PBLs collected.

thymus = assay: Mouse thymus apoptosis after ip peptide for one month; format: in vivo, mice; conditions: ip injection for one month
Experimental: Nef motif 1 was administered to mice for one month by ip injection with either Nef motif 1 (Seq. ID No. 19), the 11 mer sequence or the scrambled apoptotic sequence Seq. ID No. 18. […] This provides further indication of the ability of the Nef protein to inhibit immune response related to CD4+ peripheral blood lymphocytes.

T1 sequence (P61073 whole entry): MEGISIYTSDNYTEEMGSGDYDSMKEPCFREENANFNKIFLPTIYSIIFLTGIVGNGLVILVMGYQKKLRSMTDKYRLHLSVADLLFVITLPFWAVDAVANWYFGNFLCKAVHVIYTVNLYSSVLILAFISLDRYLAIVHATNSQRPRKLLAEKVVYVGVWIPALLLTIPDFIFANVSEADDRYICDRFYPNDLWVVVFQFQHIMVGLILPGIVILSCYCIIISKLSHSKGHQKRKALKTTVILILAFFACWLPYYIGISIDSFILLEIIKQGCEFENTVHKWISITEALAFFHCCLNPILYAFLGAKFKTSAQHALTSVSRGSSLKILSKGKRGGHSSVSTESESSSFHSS

**Q.** How did the “binding of the Flc-M1 peptide” value (CXCR4 receptor; MDA-MB-468 cells transiently transfected with CCR5 cDNA) turn out when “Flc-M1 peptide: Flc labeled M1 peptide used in the fluorescent binding assay (NAACAWLEAQ; also: Flc label, place not given here)” was run?
**A.** refractory to binding

**Q.** What about the “binding of the Flc-M1 peptide” value (CXCR4 receptor; MDA-MB-468 cells transiently transfected with empty vector) of the same substance?
**A.** refractory to binding

**Q.** And the “binding of the Flc-M1 peptide” value (CXCR4 receptor; MDA-MB-468 cells transiently transfected with the CXCR4 clone)?
**A.** significant binding

**Q.** What about the “binding of the Flc-M1 peptide” value (CXCR4 receptor; untransfected MDA-MB-468 cells) of the same substance?
**A.** refractory to binding

**Q.** How did the “apoptosis induced by Nef 20 mer peptides” value (Jurkat cell cultures) turn out when “aa51-70: Nef 20 mer overlapping peptide, residues 51-70, AIDS Reagent Program” was run?
**A.** peaking

**Q.** Which “apoptosis induced by Nef 20 mer peptides” value (Jurkat cell cultures) does the source give for “aa171-190: Nef 20 mer overlapping peptide, residues 171-190, AIDS Reagent Program (HGMDDPEREVLEWRFDSRLA; UniProt P04601 171-190, looked up, fragment)” here?
**A.** second, smaller apoptotic peak

**Q.** “aa161-180: Nef 20 mer overlapping peptide, residues 161-180, AIDS Reagent Program (NTSLLHPVSLHGMDDPEREV; UniProt P04601 161-180, looked up, fragment)” was tested. Which “apoptosis induced by Nef 20 mer peptides” value (Jurkat cell cultures) did it give?
**A.** second, smaller apoptotic peak

**Q.** Which results are given for “NAACAWLEAQ [Nef Motif 1, Peptide spanning apoptotic motif 1 (aa50-60) of HIV-1 Nef]”?
**A.** apoptosis relative to that observed using the full Nef protein (Jurkat cell cultures; 8 ng/ml, TUNEL): 82%; peripheral lymphocyte depletion (peripheral lymphocytes; mice challenged with Nef peptide for a month, PBLs collected): induced peripheral lymphocyte depletion; protective humoral response against the Nef epitope (peripheral lymphocytes; mice, naive or pre-immunized): did not stimulate a resultant protective humoral response

**Q.** How did the “apoptosis (TUNEL)” value (Jurkat cell cultures; 8 ng/ml, compared with untreated control) turn out when “ALAETCQNAWA [Nef scMotif 1, Motif 1 amino acids scrambled in random order, reference compound]” was run?
**A.** only background levels of apoptosis

**Q.** And the “apoptosis in the thymus” value (thymus)?
**A.** No apoptosis

**Q.** “TNAACAWLEAQ [Nef motif 1 (Seq. ID No. 19)]” was tested. Which “apoptosis in the thymus” value (thymus) did it give?
**A.** Significant apoptosis

**Q.** Which “apoptosis induced by Nef 20 mer peptides” value (Jurkat cell cultures) does the source give for “aa41-60: Nef 20 mer overlapping peptide, residues 41-60, AIDS Reagent Program (GAITSSNTAATNAACAWLEA; UniProt P04601 41-60, looked up, fragment)” here?
**A.** peaking
